Measurements from US20100130604A1, “USE OF ROSMARINIC ACID IN MANUFACTURE OF MEDICAMENTS FOR TREATING OR PREVENTING HEPATIC AND RENAL DISEASES” (SHANGDONG LUYE NATURAL DRUG RESEARCH AND DEVELOPMENT CO., …, priority 2006, published 2010).

Legend:
Type in all cases: in vivo, Sprague Dawley rats
[1] = test system: rats with diabetic nephropathy; experiment: Diabetic nephropathy in rats (left nephrectomy + streptozocin); settings: for creatinine: serum
Experimental: After 1 week-long acclimation period, animals were anaesthetised with 10% chloral hydrate (0.35 mL/100 g, i.p.) and nephrectomy was exercised to the left kidney. One week later, a single dose of 1% of streptozocin solution was i.v. injected to all animals at 60 mg/kg. After 72h, blood was collected from eyepit to test blood glucose level with the above-mentioned kit. The model was considered successful when blood glucose level >16.7 mmol/L. When the model is established, 130 rats were randomly divided into 13 groups, with 10 animals in each group, namely, a normal control group, a model group, benzanapril p.o. Group at 10 mg/kg, RA i.v. groups at 2.5 mg/kg, 5 mg/kg, 25 mg/kg, 75 mg/kg, and 150 mg/kg of RA, and RA p.o. groups at 5 mg/kg, 10 mg/kg, 50 mg/kg, 150 mg/kg, and 300 mg/kg of RA. The drugs were administered once every day. Blood was collected from eyepit at week 8 and week 16 to determine serum levels of creatinine and urea nitrogen. Urinary protein excretion within 24 hours was also studied. The animals were sacrificed 24 hours after the last dose and kidney removed for histopathological examination.

[2] = test system: CRF rats; experiment: CRF induced by 5/6 nephrectomy in rats
Experimental: 130 rats were randomly divided into 13 groups, with 10 animals in each group, namely, a normal control group, a model group, methylprednisolone p.o. Group at 12 mg/kg, RA i.v. groups at 2.5 mg/kg, 5 mg/kg, 25 mg/kg, 75 mg/kg, and 150 mg/kg of RA, and RA p.o. groups at 5 mg/kg, 10 mg/kg, 50 mg/kg, 150 mg/kg, and 300 mg/kg of RA. Apart from the normal control group, all other rats were induced to CRF by cutting off 5/6 of the kidneys. 2/3 of the left kidney was removed in the first operation, and one week later the right kidney in the second operation. Dosing started one week after the second operation via p.o. or i.p. routes. Blood was collected from eyepit at week 4 and week 8 to determine creatinine and urea nitrogen levels in sera. 5 animals in each group were sacrificed at week 4 and […] were sacrificed at the end of the study. Pathological changes in renal function were observed through HE and PAS staining of histopathological sections.

[3] = test system: CRF rats; experiment: CRF induced by 5/6 nephrectomy in rats; remark: listed apart in the source

Compound: O=C(/C=C/c1ccc(O)c(O)c1)O[C@H](Cc1ccc(O)c(O)c1)C(=O)O [RA, R(+)2-{[3-(3,4-dihydroxylphenyl-(oxo-2-propenyl)oxy]3,4-dihydroxylphenylpropionic acid]}]
- creatinine ([1]; 8 weeks, i.v. 5 mg/kg): 0.90 ± 0.09 mg/dL
- creatinine ([1]; 8 weeks, i.v. 25 mg/kg): 0.75 ± 0.18 mg/dL
- creatinine ([1]; 8 weeks, i.v. 75 mg/kg): 0.72 ± 0.15 mg/dL
- creatinine ([1]; 8 weeks, i.v. 150 mg/kg): 0.69 ± 0.11 mg/dL
- creatinine ([1]; 8 weeks, p.o. 5 mg/kg): 0.96 ± 0.09 mg/dL
- creatinine ([1]; 8 weeks, p.o. 10 mg/kg): 0.88 ± 0.15 mg/dL
- creatinine ([1]; 8 weeks, p.o. 50 mg/kg): 0.77 ± 0.13 mg/dL
- creatinine ([1]; 8 weeks, p.o. 150 mg/kg): 0.75 ± 0.12 mg/dL
- creatinine ([1]; 8 weeks, p.o. 300 mg/kg): 1.40 ± 0.28 mg/dL
- creatinine ([1]; 16 weeks, i.v. 2.5 mg/kg): 1.60 ± 0.18 mg/dL
- creatinine ([1]; 16 weeks, i.v. 5 mg/kg): 1.52 ± 0.37 mg/dL
- creatinine ([1]; 16 weeks, i.v. 25 mg/kg): 1.32 ± 0.28 mg/dL
- creatinine ([1]; 16 weeks, i.v. 75 mg/kg): 1.26 ± 0.28 mg/dL
- creatinine ([1]; 16 weeks, i.v. 150 mg/kg): 1.20 ± 0.22 mg/dL
- creatinine ([1]; 16 weeks, p.o. 5 mg/kg): 1.97 ± 0.19 mg/dL
- creatinine ([1]; 16 weeks, p.o. 10 mg/kg): 1.92 ± 0.19 mg/dL
- creatinine ([1]; 16 weeks, p.o. 50 mg/kg): 1.77 ± 0.28 mg/dL
- creatinine ([1]; 16 weeks, p.o. 150 mg/kg): 1.53 ± 0.28 mg/dL
- creatinine ([1]; 16 weeks, p.o. 300 mg/kg): 1.50 ± 0.26 mg/dL
- serum creatinine, urea nitrogen, 24-hour urinary protein excretion ([1]; week 8 and week 16, i.v. 2.5, 5, 25, 75, 150 mg/kg, p.o. 5, 10, 50, 150, 300 mg/kg): can all significantly reduce serum creatinine and urea nitrogen levels as well as 24-hour urinary protein excretion
- Serum urea nitrogen ([2]; 4 weeks, p.o. 5 mg/kg): 20.21 ± 2.22 mg/dL
- Serum urea nitrogen ([2]; 4 weeks, p.o. 50 mg/kg): 19.95 ± 2.20 mg/dL
- Serum urea nitrogen ([2]; 8 weeks, p.o. 5 mg/kg): 25.98 ± 2.72 mg/dL
- Serum creatinine ([2]; 8 weeks, p.o. 50 mg/kg): 1.92 ± 0.32 mg/dL
- Serum creatinine ([2]; 8 weeks, p.o. 300 mg/kg): 1.74 ± 0.36 mg/dL
- renal pathological changes (HE, PAS) ([2]; week 8): alleviated by RA treatment in a dose-dependent manner
- Serum creatinine ([3]; 4 weeks, i.v. 2.5 mg/kg): 1.32 ± 0.18 mg/dL
- Serum urea nitrogen ([3]; 4 weeks, i.v. 2.5 mg/kg): 21.12 ± 2.40 mg/dL
- Serum creatinine ([3]; 4 weeks, i.v. 5 mg/kg): 1.29 ± 0.31 mg/dL
- Serum urea nitrogen ([3]; 4 weeks, i.v. 5 mg/kg): 16.90 ± 4.09 mg/dL
- Serum creatinine ([3]; 4 weeks, i.v. 25 mg/kg): 1.12 ± 0.24 mg/dL
- Serum urea nitrogen ([3]; 4 weeks, i.v. 25 mg/kg): 14.63 ± 3.25 mg/dL
- Serum creatinine ([3]; 4 weeks, i.v. 75 mg/kg): 1.02 ± 0.19 mg/dL
- Serum urea nitrogen ([3]; 4 weeks, i.v. 75 mg/kg): 13.39 ± 2.45 mg/dL
- Serum creatinine ([3]; 4 weeks, i.v. 150 mg/kg): 1.01 ± 0.33 mg/dL
- Serum urea nitrogen ([3]; 4 weeks, i.v. 150 mg/kg): 12.85 ± 3.88 mg/dL
- Serum creatinine ([3]; 4 weeks, p.o. 5 mg/kg): 1.55 ± 0.16 mg/dL
- Serum creatinine ([3]; 4 weeks, p.o. 10 mg/kg): 1.42 ± 0.24 mg/dL
- Serum urea nitrogen ([3]; 4 weeks, p.o. 10 mg/kg): 18.60 ± 3.11 mg/dL
- Serum creatinine ([3]; 4 weeks, p.o. 50 mg/kg): 1.53 ± 0.15 mg/dL
- Serum creatinine ([3]; 4 weeks, p.o. 150 mg/kg): 1.30 ± 0.22 mg/dL
- Serum urea nitrogen ([3]; 4 weeks, p.o. 150 mg/kg): 17.01 ± 3.95 mg/dL
- Serum creatinine ([3]; 4 weeks, p.o. 300 mg/kg): 1.29 ± 0.28 mg/dL
- Serum urea nitrogen ([3]; 4 weeks, p.o. 300 mg/kg): 16.76 ± 4.30 mg/dL
- Serum creatinine ([3]; 8 weeks, i.v. 2.5 mg/kg): 1.89 ± 0.22 mg/dL
- Serum urea nitrogen ([3]; 8 weeks, i.v. 2.5 mg/kg): 22.15 ± 3.09 mg/dL
- Serum creatinine ([3]; 8 weeks, i.v. 5 mg/kg): 1.75 ± 0.37 mg/dL
- Serum urea nitrogen ([3]; 8 weeks, i.v. 5 mg/kg): 21.73 ± 5.26 mg/dL
- Serum creatinine ([3]; 8 weeks, i.v. 25 mg/kg): 1.51 ± 0.32 mg/dL
- Serum urea nitrogen ([3]; 8 weeks, i.v. 25 mg/kg): 19.25 ± 3.19 mg/dL
- Serum creatinine ([3]; 8 weeks, i.v. 75 mg/kg): 1.39 ± 0.26 mg/dL
- Serum urea nitrogen ([3]; 8 weeks, i.v. 75 mg/kg): 15.07 ± 3.45 mg/dL
- Serum creatinine ([3]; 8 weeks, i.v. 150 mg/kg): 1.37 ± 0.44 mg/dL
- Serum urea nitrogen ([3]; 8 weeks, i.v. 150 mg/kg): 14.85 ± 3.88 mg/dL
- Serum creatinine ([3]; 8 weeks, p.o. 5 mg/kg): 2.09 ± 0.22 mg/dL
- Serum creatinine ([3]; 8 weeks, p.o. 10 mg/kg): 2.06 ± 0.21 mg/dL
- Serum urea nitrogen ([3]; 8 weeks, p.o. 10 mg/kg): 25.65 ± 2.57 mg/dL
- Serum urea nitrogen ([3]; 8 weeks, p.o. 50 mg/kg): 23.91 ± 4.00 mg/dL
- Serum creatinine ([3]; 8 weeks, p.o. 150 mg/kg): 1.76 ± 0.30 mg/dL
- Serum urea nitrogen ([3]; 8 weeks, p.o. 150 mg/kg): 21.96 ± 3.95 mg/dL
- Serum urea nitrogen ([3]; 8 weeks, p.o. 300 mg/kg): 20.76 ± 5.50 mg/dL
- serum creatinine and urea nitrogen levels vs model group ([3]; i.v. 2.5, 5, 25, 75, 150 mg/kg, p.o. 5, 10, 50, 150, 300 mg/kg): can all significantly reduce serum creatinine and urea nitrogen levels
- renal pathological changes (HE, PAS) ([3]; week 4): alleviated in RA treated animals in a dose-dependent manner
